Reference: ChEMBL document CHEMBL1141822, “Tenellic acids A-D: new bioactive diphenyl ether derivatives from the aquatic fungus Dendrospora tenella” (1999)
Active and inactive are the calls of the source. No cut-off for these calls is given here.

What was measured:
Candida albicans = assay: Antimicrobial activity against Candida albicans ATCC 14053 at 200 ug/disk; type: functional, organism-based
Staphylococcus aureus = assay: Antimicrobial activity against Staphylococcus aureus ATCC 29213 at 200 ug/disk; type: functional; conditions: read-out: IZ
Bacillus subtilis = assay: Antimicrobial activity against Bacillus subtilis ATCC 6051 at 200 ug/disk; type: functional; conditions: read-out: IZ

| Structure (SMILES) | Activity (Candida albicans) | zone of inhibition at 200 µg/disc (Staphylococcus aureus) [mm] | zone of inhibition at 200 µg/disc (Bacillus subtilis) [mm] |
| --- | --- | --- | --- |
| COc1c(C(CC(C)C)OC(C)=O)ccc(Oc2c(O)cc(C)cc2C=O)c1C(=O)O (stereo not given) [TENELLIC ACID C] | inactive | 14 | 12 |
| COc1c(C(O)CC(C)C)ccc(Oc2c(O)cc(C)cc2C=O)c1C(=O)O (stereo not given) [TENELLIC ACID B] | inactive |  | 9 |
| COc1c(C(CC(C)C)OCC(C)C)ccc(Oc2c(O)cc(C)cc2C=O)c1C(=O)O (stereo not given) [TENELLIC ACID D] | inactive | 25 | 29 |
| COc1c(C(CC(C)C)OC)ccc(Oc2c(O)cc(C)cc2C=O)c1C(=O)O (stereo not given) [TENELLIC ACID A] | inactive |  | 11 |
